# Laboratory results: patent US20110144079A1, “ANTIMICROBIAL SYSTEM” (priority 2008, published 2011)
# Like-named read-outs stand apart in the source and are kept apart here.
# Tests used:
# B. cenocepacia J2315 = assay: Broth microdilution MIC/MBC; assay type: cell-based
# Method: (§1) Broth microdilution tests were performed according to NCCLS guidelines. Serial two-fold dilutions of each imidazolium salt (from an original working solution which had been 0.22 μm sterile filtered) in Mueller-Hinton Broth (MHB) (100 μl) were prepared in 96-well micro-titre plates over the range 0.0000625-1% w/v. The inoculum to be tested was prepared by adjusting the turbidity of an actively overnight growing broth culture in MHB to an optical density at 550 nm equivalent to 1×10^8 CFU/ml. The suspension was further diluted to provide a final inoculum density of 2×10^5 CFU/ml in MHB as verified by total viable count. The inoculum to be tested (100 μl, 2×10^5 CFU ml^−1) was added to each well of the microdilution trays which were incubated aerobically for 24 h at 37° C. Positive and negative growth controls were included in every assay (6 replicates). After determining the MICs, minimum bactericidal concentrations (MBCs) were determined by spreading 20 μl of suspension from wells showing no growth onto MHA plates, which were then incubated for 24 h and examined for 99.9% killing.
# C. tropicalis NCTC 7393 = assay: Broth microdilution MIC/MBC; assay type: cell-based; conditions: for MIC: C. tropicalis NCTC 7393, 24 h at 37° C.
# Method: as §1
# E-MRSA 15 = assay: Broth microdilution MIC/MBC; assay type: cell-based
# Method: as §1
# E. coli NCTC 8196 = assay: Broth microdilution MIC/MBC; assay type: cell-based; conditions: for MIC: E. coli NCTC 8196, 24 h at 37° C.
# Method: as §1
# K. aerogenes NCTC 7427 = assay: Broth microdilution MIC/MBC; assay type: cell-based; conditions: for MIC: K. aerogenes NCTC 7427, 24 h at 37° C.
# Method: as §1
# P. aeruginosa PA01 = assay: Broth microdilution MIC/MBC; assay type: cell-based; conditions: for MIC: P. aeruginosa PA01, 24 h at 37° C., read-out: MIC
# Method: as §1
# P. mirabilis NCTC 12442 = assay: Broth microdilution MIC/MBC; assay type: cell-based; conditions: for MIC: P. mirabilis NCTC 12442, 24 h at 37° C.
# Method: as §1
# S. aureus ATCC 29213 = assay: Broth microdilution MIC/MBC; assay type: cell-based; conditions: for MIC: S. aureus ATCC 29213, 24 h at 37° C.
# Method: as §1
# [1] = test system: S. epidermidis ATCC 12228; assay: Broth microdilution MIC/MBC; assay type: cell-based; conditions: for MIC: S. epidermidis ATCC 12228, 24 h at 37° C.
# Method: as §1
# [2] = test system: S. epidermidis ATCC 35984; assay: Broth microdilution MIC/MBC; assay type: cell-based; conditions: for MIC: S. epidermidis ATCC 35984, 24 h at 37° C.
# Method: as §1
# MRSA [3] = assay: Broth microdilution MIC/MBC; assay type: cell-based, methicillin-resistant S. aureus; conditions: for MIC: 24 h at 37° C.
# Method: as §1
# B. cereus = assay: Broth microdilution MIC/MBC; assay type: cell-based; conditions: 24 h at 37° C.
# Method: as §1
# MRSA [4] = assay: Zone of inhibition on MRSA-seeded agar culture plates; assay type: cell-based, methicillin-resistant S. aureus; conditions: 40 μL of ionic liquid applied to MRSA-seeded agar culture plates
# Excerpt: As used herein, CyMIMCI, refers to 1-alkyl-3-methyl-imidazolium chloride ionic liquids, wherein the alkyl group is a straight chain alkyl group having y carbon atoms.
# [5] = Pseudomonas aeruginosa, PA01, 24 h
MIC (C. tropicalis NCTC 7393) [µM],MIC (E. coli NCTC 8196) [µM],MIC (K. aerogenes NCTC 7427) [µM],MIC (P. mirabilis NCTC 12442) [µM],MIC (S. aureus ATCC 29213) [µM],MIC [1] [µM],MIC [2] [µM],MIC (B. cereus) [µM],Compound,other results
50.88,50.88,50.88,50.88,50.88,50.88,50.88,407,CCCCCCCCCCCCn1cc[n+](C)c1.CCCCCCCCCCCCn1cc[n+](C)c1.[Cl][Cu-2]([Cl])([Cl])[Cl] [(1-alkyl-3-methylimidazolium)2CuCl4 12],–
20.01,40.02,40.02,20.01,40.02,20.01,40.02,80.06,CCCCCCCCCCCCCCn1cc[n+](C)c1.CCCCCCCCCCCCCCn1cc[n+](C)c1.[Cl][Cu-2]([Cl])([Cl])[Cl] [(1-alkyl-3-methylimidazolium)2CuCl4 14],–
44.81,44.81,44.81,44.81,22.41,44.81,22.41,89.63,CCCCCCCCCCCCCCCCn1cc[n+](C)c1.CCCCCCCCCCCCCCCCn1cc[n+](C)c1.[Cl][Cu-2]([Cl])([Cl])[Cl] [(1-alkyl-3-methylimidazolium)2CuCl4 16],–
84.57,131.98,338.29,338.29,131.98,131.98,131.98,169.15,CCCCCCCCCCCCCCCCCCn1cc[n+](C)c1.CCCCCCCCCCCCCCCCCCn1cc[n+](C)c1.[Cl][Cu-2]([Cl])([Cl])[Cl] [(1-alkyl-3-methylimidazolium)2CuCl4 18],–

# More lines, now with the values behind:
Compound,MIC (C. tropicalis NCTC 7393) [µM],MIC (E. coli NCTC 8196) [µM],MIC (K. aerogenes NCTC 7427) [µM],MIC (P. mirabilis NCTC 12442) [µM],MIC (S. aureus ATCC 29213) [µM],MIC [1] [µM],MIC [2] [µM],MIC (B. cereus) [µM],other results
CCCCCCn1cc[n+](C)c1.[Cl-] [1-alkyl-3-methylimidazolium chlorides 6],>1644,>1644,>1644,>1644,>1644,>1644,>1644,–,"MBC (B. cenocepacia J2315; B. cenocepacia J2315, 99.9% killing): >1644 µM; MIC (B. cenocepacia J2315; B. cenocepacia J2315, 24 h at 37° C.): >1644 µM; MBC (C. tropicalis NCTC 7393; C. tropicalis NCTC 7393, 99.9% killing): >1644 µM; MBC (E-MRSA 15; E-MRSA 15, 99.9% killing): >1644 µM; MIC (E-MRSA 15; E-MRSA 15, 24 h at 37° C.): >1644 µM; MBC (E. coli NCTC 8196; E. coli NCTC 8196, 99.9% killing): >1644 µM; MBC (K. aerogenes NCTC 7427; K. aerogenes NCTC 7427, 99.9% killing): >1644 µM; MBC (P. aeruginosa PA01; P. aeruginosa PA01, 99.9% killing): >1644 µM; MIC (P. aeruginosa PA01): >1644 µM; MBC (P. mirabilis NCTC 12442; P. mirabilis NCTC 12442, 99.9% killing): >1644 µM; MBC (S. aureus ATCC 29213; S. aureus ATCC 29213, 99.9% killing): >1644 µM; MBC ([1]; S. epidermidis ATCC 12228, 99.9% killing): >1644 µM; MBC ([2]; S. epidermidis ATCC 35984, 99.9% killing): >1644 µM; MBC (MRSA [3]; 99.9% killing): >1644 µM; MIC (MRSA [3]): >1644 µM"
CCCCCCCC[n+]1ccn(C)c1.[Br][Ag-][Br] [1-alkyl-3-methylimidazolium-AgBr2 8],168.5,136.69,168.5,168.5,136.69,68.35,68.35,168.5,–
CCCCCCCCCCn1cc[n+](C)c1.[Br][Ag-][Br] [1-alkyl-3-methylimidazolium-AgBr2 10],79.78,32.68,79.78,79.78,32.68,32.68,32.68,79.78,–
CCCCCCCCCCCC[n+]1ccn(C)c1.[Br][Ag-][Br] [1-alkyl-3-methylimidazolium-AgBr2 12],75.85,31.32,34.40,34.40,15.66,31.32,15.66,68.81,–
CCCCCCCCCCCCCC[n+]1ccn(C)c1.[Br][Ag-][Br] [1-alkyl-3-methylimidazolium-AgBr2 14],36.1,15.03,18.05,18.05,3.76,15.03,15.03,72.2,–
CCCCCCCCCCCCCCCCn1cc[n+](C)c1.[Br][Ag-][Br] [1-alkyl-3-methylimidazolium-AgBr2 16],34.44,28.91,34.44,34.44,7.23,3.61,3.61,68.89,–
CCCCCCCCCCCCCCCCCC[n+]1ccn(C)c1.[Br][Ag-][Br] [1-alkyl-3-methylimidazolium-AgBr2 18],65.87,27.83,65.87,65.87,27.83,13.91,13.91,65.87,–
CCCCCCCC[n+]1ccn(C)c1.CCCCCCCC[n+]1ccn(C)c1.[Cl][Cu-2]([Cl])([Cl])[Cl] [(1-alkyl-3-methylimidazolium)2CuCl4 8],941.6,470,941.6,941.6,470,470,470,1883.21,–
CCCCCCCCCC[n+]1ccn(C)c1.CCCCCCCCCC[n+]1ccn(C)c1.[Cl][Cu-2]([Cl])([Cl])[Cl] [(1-alkyl-3-methylimidazolium)2CuCl4 10],218.3,101.74,218.3,218.3,101.74,101.74,101.74,1746.4,–
CCCCCCCCCCCCCCCCn1cc[n+](C)c1.[Cl-] [C16MIMCl],–,–,–,–,–,–,–,–,Zone Of Inhibition Radius (MRSA [4]): 6 mm
CCCCCCCCCCCCCCCCCCn1cc[n+](C)c1.[Cl-] [C18MIMCl],–,–,–,–,–,–,–,–,Zone Of Inhibition Radius (MRSA [4]): 10 mm
"CCCCCCCCCCCCCC[n+]1ccn(C)c1C [IL1, 1,2-dimethyl-3-tetradecylimidazolium bromide, reference compound]",–,–,–,–,–,–,–,–,"MIC (B. cereus; Bacillus cereus): 372 µM; MIC (E. coli NCTC 8196; Escherichia coli, NCTC8196): 46.5 µM; MIC (P. aeruginosa PA01; [5]): 743 µM; MIC (P. mirabilis NCTC 12442; Proteus mirabilis, NCTC12442): 372 µM; MIC ([1]; Staphylococcus epidermidis, ATCC12228): 213 µM; MIC (MRSA [3]; Staphylococcus aureus): 186 µM"
"CCCCCCCCCCCCCC[N+](C)(C)CCO [IL2, N,N-dimethyl-N-(2-hydroxyethyl)-N-tetradecylammonium bromide, reference compound]",–,–,–,–,–,–,–,–,"MIC (B. cereus; Bacillus cereus): 13.3 µM; MIC (E. coli NCTC 8196; Escherichia coli, NCTC8196): 53.4 µM; MIC (P. aeruginosa PA01; [5]): 427 µM; MIC (P. mirabilis NCTC 12442; Proteus mirabilis, NCTC12442): 427 µM"
